≈ marks a conversion by molar mass, not a printed value. Blank lines part the entries; values can stand above or below the compound they belong to.
What was measured:
Test in all cases: ≥ marks a high value that may be exact or a test limit, other limits are often not marked, values filed in µg/mL are converted to µM
[1] = tested on: Escherichia coli UB1005
[2] = tested on: Staphylococcus aureus ATCC 25923
[3] = tested on: Salmonella enterica subsp. enterica serovar Typhimurium C77-31
[4] = tested on: Salmonella enterica subsp. enterica serovar Typhimurium ATCC 14028
[5] = tested on: Salmonella enterica subsp. enterica serovar Typhi CMCC 50071
[6] = tested on: Salmonella enterica subsp. enterica serovar Pullorum C79-13
[7] = tested on: Staphylococcus epidermidis ATCC 12228
[8] = tested on: Staphylococcus aureus ATCC 29213
[9] = tested on: Proteus mirabilis ATCC 35659
[10] = tested on: Bacillus licheniformis ATCC 14580
[11] = tested on: Escherichia coli ATCC 25922
[12] = tested on: Pseudomonas aeruginosa PAO1
[13] = tested on: Bacillus amyloliquefaciens ATCC 23842
[14] = tested on: Enterococcus faecalis 1F-1
[15] = tested on: Salmonella enterica ATCC H9812
[16] = tested on: Bacillus cereus ATCC 14579
[17] = tested on: Enterococcus faecium 5F-10
[18] = tested on: Bacillus subtilis ATCC 6051
[19] = tested on: Salmonella enterica subsp. enterica serovar Pullorum ATCC 7913
[20] = tested on: Pseudomonas aeruginosa ATCC 27853
[21] = tested on: Escherichia coli K88
[22] = tested on: Salmonella typhimurium ATCC 7731
[23] = tested on: Listeria monocytogenes CGMCC 1.1075
[24] = tested on: Bacillus cereus CGMCC 1.932
[25] = tested on: Escherichia coli K99
[26] = tested on: Enterococcus faecalis ATCC 29212
[27] = tested on: Staphylococcus aureus ATCC 43300
[28] = tested on: Acinetobacter baumannii
[29] = tested on: Bacillus subtilis CMCC 63501
[30] = tested on: Escherichia coli 078
[31] = tested on: Escherichia coli SBS 363
[32] = tested on: Candida albicans MDM8
[33] = tested on: Micrococcus luteus A270
[34] = tested on: Serratia marcescens ATCC 4112
[35] = tested on: Bacillus subtilis ATCC 6633
[36] = tested on: Enterobacter cloacae beta-12
[37] = tested on: Candida tropicalis IOC 4560
[38] = tested on: Bacillus megaterium ATCC 10778
[39] = tested on: Bacillus cereus ACM 446
[40] = tested on: Listeria monocytogenes NCTC 7973
[41] = tested on: Salmonella enterica subsp. enterica serovar Salford IMVS 1710
[42] = tested on: Escherichia coli O9
[43] = tested on: Escherichia coli L361
[44] = tested on: Pseudomonas fluorescens
[45] = tested on: Staphylococcus aureus NCTC 6571
[46] = tested on: Klebsiella pneumoniae NDM-1
[47] = tested on: Enterococcus faecalis
[48] = tested on: Escherichia coli NDM-1
[49] = tested on: Staphylococcus aureus ATCC 1717
[50] = tested on: Morganella morganii
[51] = tested on: Enterobacter cloacae
[52] = tested on: Bacillus subtilis ATCC 23857
[53] = tested on: Klebsiella oxytoca
[54] = tested on: Citrobacter freundii

MIC [1]: 8 µM (≈ 14.2 µg/mL)
MIC [2]: 32 µM (≈ 56.7 µg/mL)
MIC [3]: 16 µM (≈ 28.3 µg/mL)
MIC [4]: 32 µM (≈ 56.7 µg/mL)
MIC [5]: ≥ 128 µM
MIC [6]: 16 µM (≈ 28.3 µg/mL)
MIC [7]: 8 µM (≈ 14.2 µg/mL)
MIC [8]: 8 µM (≈ 14.2 µg/mL)
Compound: NCCCC[C@H](NC(=O)[C@H](Cc1c[nH]c2ccccc12)NC(=O)[C@H](CCCN=C(N)N)NC(=O)[C@H](CCCN=C(N)N)NC(=O)[C@H](Cc1c[nH]c2ccccc12)NC(=O)[C@H](CCC(N)=O)NC(=O)[C@H](Cc1c[nH]c2ccccc12)NC(=O)[C@H](CCCN=C(N)N)NC(=O)[C@H](CCCN=C(N)N)NC(=O)[C@H](Cc1c[nH]c2ccccc12)NC(=O)[C@@H](N)CCCCN)C(N)=O [KWRRWQWRRWK]

MIC [19]: 4 µM (≈ 6.92 µg/mL)
MIC [20]: 8 µM (≈ 13.8 µg/mL)
MIC [1]: 2 µM (≈ 3.46 µg/mL)
MIC [12]: 4 µM (≈ 6.92 µg/mL)
MIC [21]: 1 µM (≈ 1.73 µg/mL)
MIC [2]: 4 µM (≈ 6.92 µg/mL)
MIC [22]: 8 µM (≈ 13.8 µg/mL)
MIC [23]: 1 µM (≈ 1.73 µg/mL)
MIC [4]: 8 µM (≈ 13.8 µg/mL)
MIC [24]: 8 µM (≈ 13.8 µg/mL)
MIC [25]: 2 µM (≈ 3.46 µg/mL)
MIC [26]: 2 µM (≈ 3.46 µg/mL)
MIC [7]: 2 µM (≈ 3.46 µg/mL)
MIC [27]: 4 µM (≈ 6.92 µg/mL)
MIC [28]: 1 µM (≈ 1.73 µg/mL)
MIC [29]: 4 µM (≈ 6.92 µg/mL)
MIC [30]: 4 µM (≈ 6.92 µg/mL)
Compound: CC(C)[C@H](NC(=O)[C@H](CCCN=C(N)N)NC(=O)[C@H](Cc1c[nH]c2ccccc12)NC(=O)[C@H](CCCN=C(N)N)NC(=O)[C@H](Cc1c[nH]c2ccccc12)NC(=O)[C@H](Cc1c[nH]c2ccccc12)NC(=O)[C@H](Cc1c[nH]c2ccccc12)NC(=O)[C@H](CCCN=C(N)N)NC(=O)[C@H](Cc1c[nH]c2ccccc12)NC(=O)[C@H](CCCN=C(N)N)NC(=O)CN)C(N)=O [GRWRWWWRWRV]

The remaining lines, values behind:

Compound: CC(C)C[C@H](NC(=O)[C@H](CC(C)C)NC(=O)[C@H](CCC(=O)O)NC(=O)[C@@H](N)CC(=O)O)C(=O)N[C@@H](CO)C(=O)N[C@@H](CCCN=C(N)N)C(=O)N[C@H](C(=O)O)C(C)C [DELLSRV]
MIC [9]: ≥ 154 µM
MIC [10]: ≥ 154 µM
MIC [11]: 38.5 µM (≈ 32 µg/mL)
MIC [12]: > 154 µM
MIC [13]: ≥ 154 µM
MIC [14]: ≥ 154 µM
MIC [15]: ≥ 77 µM
MIC [16]: ≥ 154 µM
MIC [17]: ≥ 154 µM
MIC [18]: ≥ 154 µM
MIC [8]: > 154 µM

Compound: CC(C)C[C@H](NC(=O)[C@H](C)NC(=O)CNC(=O)[C@H](CC(C)C)NC(=O)[C@@H](N)Cc1ccccc1)C(=O)N[C@@H](Cc1c[nH]c2ccccc12)C(=O)N[C@@H](CCCN=C(N)N)C(=O)N[C@H](C(=O)N[C@@H](C)C(=O)N[C@@H](CCCCN)C(=O)N[C@@H](CO)C(=O)N[C@H](C(=O)N[C@@H](Cc1ccccc1)C(N)=O)C(C)C)C(C)C [FLGALWRVAKSVF]
MIC [31]: 1.6 µM (≈ 2.39 µg/mL)
MIC [20]: 6.3 µM (≈ 9.4 µg/mL)
MIC [32]: 1.6 µM (≈ 2.39 µg/mL)
MIC [33]: 1.6 µM (≈ 2.39 µg/mL)
MIC [34]: 0.4 µM (≈ 0.597 µg/mL)
MIC [35]: 0.8 µM (≈ 1.19 µg/mL)
MIC [36]: 6.3 µM (≈ 9.4 µg/mL)
MIC [37]: 1.6 µM (≈ 2.39 µg/mL)
MIC [8]: 1.6 µM (≈ 2.39 µg/mL)
MIC [38]: 0.8 µM (≈ 1.19 µg/mL)

Compound: CC[C@H](C)[C@H](NC(=O)[C@H](CO)NC(=O)[C@@H]1CCCN1C(=O)[C@H](C)NC(=O)CNC(=O)[C@H](CC(C)C)NC(=O)[C@H](CCCCN)NC(=O)[C@H](CCCCN)NC(=O)[C@H](CCSC)NC(=O)[C@H](CCCN=C(N)N)NC(=O)[C@H](Cc1c[nH]c2ccccc12)NC(=O)[C@H](CCC(N)=O)NC(=O)[C@H](Cc1c[nH]c2ccccc12)NC(=O)[C@H](CCCN=C(N)N)NC(=O)[C@H](CCCN=C(N)N)NC(=O)[C@H](CS)NC(=O)[C@H](CCCCN)NC(=O)[C@@H](N)Cc1ccccc1)C(=O)N[C@H](C(=O)N[C@@H](CS)C(=O)N[C@H](C(=O)N[C@@H](CCCN=C(N)N)C(=O)N[C@@H](CCCN=C(N)N)C(=O)N[C@@H](C)C(=O)N[C@@H](Cc1ccccc1)C(=O)N[C@@H](C)C(=O)O)C(C)C)[C@@H](C)O [FKCRRWQWRMKKLGAPSITCVRRAFA]
MIC [39]: 8 µM (≈ 25.6 µg/mL)
MIC [40]: 4 µM (≈ 12.8 µg/mL)
MIC [41]: 4 µM (≈ 12.8 µg/mL)
MIC [42]: 8 µM (≈ 25.6 µg/mL)
MIC [43]: 4 µM (≈ 12.8 µg/mL)
MIC [44]: 6 µM (≈ 19.2 µg/mL)
MIC [45]: 6 µM (≈ 19.2 µg/mL)

Compound: CC[C@H](C)[C@H](NC(=O)CN)C(=O)N[C@@H](CCCCN)C(=O)N[C@@H](C)C(=O)NCC(=O)N[C@H](C(=O)N[C@H](C(=O)N[C@H](C(=O)N[C@@H](CCCCN)C(=O)N[C@H](C(=O)N[C@@H](CCCCN)C(=O)N[C@@H](CCCCN)C(N)=O)[C@@H](C)CC)[C@@H](C)CC)[C@@H](C)CC)[C@@H](C)CC [GIKAGIIIKIKK]
MIC [46]: 22.6 µM (≈ 29 µg/mL)
MIC [11]: 16 µM (≈ 20.5 µg/mL)
MIC [47]: ≥ 64 µM
MIC [48]: 16 µM (≈ 20.5 µg/mL)
MIC [49]: ≥ 128 µM
MIC [50]: ≥ 128 µM
MIC [51]: 22.6 µM (≈ 29 µg/mL)
MIC [52]: 16 µM (≈ 20.5 µg/mL)
MIC [53]: ≥ 32 µM
MIC [54]: 16 µM (≈ 20.5 µg/mL)

From DBAASP
